Results reported in patent US8927580B2, “Thiosemicarbazone compounds and use in the treatment of cancer” (Oncochel Therapeutics LLC, priority 2010, dated 2015).

Columns and labels:
[1] = test system: SK-N-MC neuroepithelioma cell line; experiment: MTT anti-proliferative assay in SK-N-MC cells; type: cell-based, human; details: Homo sapiens, 72 h at 37° C., mean±SD (3 experiments)
Procedure: The cells were maintained in minimum essential media (MEM; Invitrogen, CA, USA) which contained 10% fetal calf serum (FCS; JRH Biosciences, Kansas, USA), 1% non-essential amino acids (Gibco, Victoria, Australia), 1% penicillin/streptomycin/glutamine (Gibco, VIC, Australia) and fungizone ([…]; Squibb Pharmaceuticals, Montreal, Canada).
The ability of the compounds to inhibit cellular proliferation was assessed initially in SK-N-MC cells by the MTT assay.
Table 1. […] Cells were seed and allowed to attach to wells for 24 h and then incubated for 72 h at 37° C. with control medium or the chelators.

[2] = test system: SK-N-MC neuroepithelioma cells; experiment: Iron efflux assay (59Fe release from pre-labeled cells); type: cell-based, human; details: 25 μM chelator, 3 h at 37° C.
Procedure: The culture dishes were then placed on ice, the supernatant containing excess ^59Fe-Tf was aspirated and the cells washed 4 times with ice-cold PBS. […] After 3 h the culture dishes were again placed on ice, the media was collected in counting tubes and this provided a measurement of released ^59Fe. Ice-cold PBS (1 mL) was added to plates containing cells and cells were scraped from the plastic surface using a Teflon spatula and also collected in counting tubes. These tubes represent the intracellular ^59Fe content. Results are expressed as total ^59Fe released as a percentage of total ^59Fe present. Radioactivity was measured using a Wallac Wizard 3″ Gamma Counter (PerkinElmer, MA, USA).

[3] = test system: SK-N-MC neuroepithelioma cells; experiment: Iron uptake assay (59Fe uptake from 59Fe-transferrin); type: cell-based, human; details: 25 μM chelator, 3 h at 37° C., 59Fe-Tf
Procedure: Cells were cultured in the same way as for the iron efflux experiments. […] At the end of the incubation the culture dishes were placed on ice, the media aspirated, and the cells washed 4 times with ice cold PBS. Protease (1 mL; 1 mg/mL; Sigma-Aldrich, NSW, Australia) solution was added to each plate and allowed to incubate on ice for 30 min. This facilitated the removal of membrane bound ^59Fe-Tf. Cells were then scraped from the plastic surface using a Teflon spatula and collected in Eppendorf tubes. These were centrifuged at 10000 rpm and 4° C. for 3 min. The supernatant was then transferred into counting tubes and the cell pellet resuspended in PBS before also being transferred into another set of counting tubes. Radioactivity was measured using a Wallac Wizard 3″ Gamma Counter (PerkinElmer, MA, USA). Results are expressed as average ^59Fe content of the cellular fraction as a percentage of the control value.

[4] = test system: DMS-53 human lung carcinoma; experiment: DMS-53 xenograft in nude mice, i.v. administration: tumour growth; type: in vivo, nude mice (BALBc nu/nu); details: after 25 days, 4 or 6 mg/kg
[5] = test system: DMS-53 human lung carcinoma; experiment: DMS-53 xenograft in nude mice, oral gavage: tumour growth; type: in vivo, nude mice (BALBc nu/nu); details: for Tumour weight: 21 days; for net tumour size (% of initial tumour volume): after 21 days
[6] = DMS-53 xenograft oral study: body and organ weights, haematology, biochemistry, histology; type: in vivo, nude mice (BALBc nu/nu); details: for Alanine Aminotransferase (ALT) / Albumin / Alkaline Phosphatase (ALP) / Cholesterol / Haematocrit (HCT) / Haemoglobin (HGB) / Platelets / Serum Iron / Total Iron-Binding Capacity (TIBC) / Triglyceride / Unsaturated Iron-Binding Capacity (UIBC) / White Blood Cell (WBC): oral gavage 21 days; for Red Blood Cell (RBC): oral gavage for 21 days, 3 days/week; for Body weight (% initial) / Brain weight / Heart weight / Kidney weight / Liver weight / Lung weight / Spleen weight: oral

**Q.** Which IC50 [1] does the source give for CCN(C)C(=S)NN=C(c1ccccn1)c1ccccn1 [Dp4e4mT, di-2-pyridylketone 4-ethyl-4-methyl-3-thiosemicarbazone] here?
**A.** 4.1 nM

**Q.** What about the “cellular 59Fe mobilised (59Fe released as percentage of total 59Fe)” value [2] of the same compound?
**A.** 38%

**Q.** What about the “cellular 59Fe uptake (% of the control)” value [3] of the same compound?
**A.** 12%

**Q.** What about the “net tumour size (% of the initial tumour volume)” value [4] of the same compound?
**A.** 120-122%

**Q.** What about the Tumour weight ([5]; 2.5 mg/kg) of the same compound?
**A.** 0.63 ± 0.17 g

**Q.** What about the Tumour weight ([5]; 5 mg/kg) of the same compound?
**A.** 0.89 ± 0.14 g

**Q.** And the Tumour weight ([5]; 7.5 mg/kg)?
**A.** 0.60 ± 0.15 g

**Q.** What about the “net tumour size (% of initial tumour volume)” value ([5]; 7.5 mg/kg) of the same compound?
**A.** 404%

**Q.** What about the “net tumour size (% of initial tumour volume)” value ([5]; 10 mg/kg) of the same compound?
**A.** 284%

**Q.** What about the “Alanine Aminotransferase (ALT)” value ([6]; 2.5 mg/kg) of the same compound?
**A.** 73.1 U/L

**Q.** And the Albumin ([6]; 2.5 mg/kg)?
**A.** 31.3 g/L

**Q.** And the “Alkaline Phosphatase (ALP)” value ([6]; 2.5 mg/kg)?
**A.** 85.7 U/L

**Q.** And the Cholesterol ([6]; 2.5 mg/kg)?
**A.** 2.44 mmol/L

**Q.** What about the Haematocrit (HCT) ([6]; 2.5 mg/kg) of the same compound?
**A.** 44%

**Q.** And the “Haemoglobin (HGB)” value ([6]; 2.5 mg/kg)?
**A.** 148 g/L

**Q.** And the Platelets ([6]; 2.5 mg/kg)?
**A.** 1047 10^9/L

**Q.** What about the “Serum Iron” value ([6]; 2.5 mg/kg) of the same compound?
**A.** 25.5 µmol/L

**Q.** And the “Total Iron-Binding Capacity (TIBC)” value ([6]; 2.5 mg/kg)?
**A.** 56.7 µmol/L

**Q.** What about the Triglyceride ([6]; 2.5 mg/kg) of the same compound?
**A.** 1.00 mmol/L

**Q.** And the “Unsaturated Iron-Binding Capacity (UIBC)” value ([6]; 2.5 mg/kg)?
**A.** 57.9 µmol/L

**Q.** What about the “White Blood Cell (WBC)” value ([6]; 2.5 mg/kg) of the same compound?
**A.** 2.68 10^9/L

**Q.** What about the “Alanine Aminotransferase (ALT)” value ([6]; 5 mg/kg) of the same compound?
**A.** 44.9 U/L

**Q.** What about the Albumin ([6]; 5 mg/kg) of the same compound?
**A.** 30.4 g/L

**Q.** And the “Alkaline Phosphatase (ALP)” value ([6]; 5 mg/kg)?
**A.** 61.7 U/L

**Q.** What about the Cholesterol ([6]; 5 mg/kg) of the same compound?
**A.** 2.63 mmol/L

**Q.** What about the Haematocrit (HCT) ([6]; 5 mg/kg) of the same compound?
**A.** 43%

**Q.** And the “Haemoglobin (HGB)” value ([6]; 5 mg/kg)?
**A.** 143 g/L

**Q.** And the Platelets ([6]; 5 mg/kg)?
**A.** 973 10^9/L

**Q.** And the “Serum Iron” value ([6]; 5 mg/kg)?
**A.** 31.0 µmol/L

**Q.** What about the “Total Iron-Binding Capacity (TIBC)” value ([6]; 5 mg/kg) of the same compound?
**A.** 53.1 µmol/L

**Q.** And the Triglyceride ([6]; 5 mg/kg)?
**A.** 0.57 mmol/L

**Q.** What about the “Unsaturated Iron-Binding Capacity (UIBC)” value ([6]; 5 mg/kg) of the same compound?
**A.** 66.9 µmol/L

**Q.** What about the “White Blood Cell (WBC)” value ([6]; 5 mg/kg) of the same compound?
**A.** 1.80 10^9/L

**Q.** What about the “Alanine Aminotransferase (ALT)” value ([6]; 7.5 mg/kg) of the same compound?
**A.** 57.2 U/L

**Q.** What about the Albumin ([6]; 7.5 mg/kg) of the same compound?
**A.** 31.3 g/L

**Q.** And the “Alkaline Phosphatase (ALP)” value ([6]; 7.5 mg/kg)?
**A.** 87.2 U/L

**Q.** And the Cholesterol ([6]; 7.5 mg/kg)?
**A.** 2.78 mmol/L

**Q.** And the Haematocrit (HCT) ([6]; 7.5 mg/kg)?
**A.** 45%

**Q.** What about the “Haemoglobin (HGB)” value ([6]; 7.5 mg/kg) of the same compound?
**A.** 151 g/L

**Q.** What about the Platelets ([6]; 7.5 mg/kg) of the same compound?
**A.** 834 10^9/L

**Q.** And the “Serum Iron” value ([6]; 7.5 mg/kg)?
**A.** 32.8 µmol/L

**Q.** And the “Total Iron-Binding Capacity (TIBC)” value ([6]; 7.5 mg/kg)?
**A.** 56.8 µmol/L

**Q.** What about the Triglyceride ([6]; 7.5 mg/kg) of the same compound?
**A.** 0.67 mmol/L

**Q.** And the “Unsaturated Iron-Binding Capacity (UIBC)” value ([6]; 7.5 mg/kg)?
**A.** 64.9 µmol/L

**Q.** And the “White Blood Cell (WBC)” value ([6]; 7.5 mg/kg)?
**A.** 3.08 10^9/L

**Q.** What about the “Alanine Aminotransferase (ALT)” value ([6]; 10 mg/kg) of the same compound?
**A.** 63.4 U/L

**Q.** What about the Albumin ([6]; 10 mg/kg) of the same compound?
**A.** 29.3 g/L

**Q.** And the “Alkaline Phosphatase (ALP)” value ([6]; 10 mg/kg)?
**A.** 89.5 U/L

**Q.** And the Cholesterol ([6]; 10 mg/kg)?
**A.** 2.46 mmol/L

**Q.** And the Haematocrit (HCT) ([6]; 10 mg/kg)?
**A.** 44%

**Q.** And the “Haemoglobin (HGB)” value ([6]; 10 mg/kg)?
**A.** 142 g/L

**Q.** And the Platelets ([6]; 10 mg/kg)?
**A.** 917 10^9/L

**Q.** What about the “Serum Iron” value ([6]; 10 mg/kg) of the same compound?
**A.** 21.2 µmol/L

**Q.** What about the “Total Iron-Binding Capacity (TIBC)” value ([6]; 10 mg/kg) of the same compound?
**A.** 60.2 µmol/L

**Q.** And the Triglyceride ([6]; 10 mg/kg)?
**A.** 0.94 mmol/L

**Q.** And the “Unsaturated Iron-Binding Capacity (UIBC)” value ([6]; 10 mg/kg)?
**A.** 50.1 µmol/L

**Q.** And the “White Blood Cell (WBC)” value ([6]; 10 mg/kg)?
**A.** 3.27 10^9/L

**Q.** And the “Red Blood Cell (RBC)” value ([6]; 2.5 mg/kg)?
**A.** 10.55 10^12/L

**Q.** What about the “Red Blood Cell (RBC)” value ([6]; 5 mg/kg) of the same compound?
**A.** 10.26 10^12/L

**Q.** And the “Red Blood Cell (RBC)” value ([6]; 7.5 mg/kg)?
**A.** 10.85 10^12/L

**Q.** What about the “Red Blood Cell (RBC)” value ([6]; 10 mg/kg) of the same compound?
**A.** 10.18 10^12/L

**Q.** And the “Body weight (% initial)” value ([6]; 2.5 mg/kg)?
**A.** 94.1 ± 1.3 % initial

**Q.** And the Brain weight ([6]; 2.5 mg/kg)?
**A.** 0.372 ± 0.006 g

**Q.** And the Heart weight ([6]; 2.5 mg/kg)?
**A.** 0.078 ± 0.002 g

**Q.** And the Kidney weight ([6]; 2.5 mg/kg)?
**A.** 0.194 ± 0.005 g

**Q.** What about the Liver weight ([6]; 2.5 mg/kg) of the same compound?
**A.** 0.87 ± 0.02 g

**Q.** What about the Lung weight ([6]; 2.5 mg/kg) of the same compound?
**A.** 0.121 ± 0.005 g

**Q.** What about the Spleen weight ([6]; 2.5 mg/kg) of the same compound?
**A.** 0.075 ± 0.004 g

**Q.** And the “Body weight (% initial)” value ([6]; 5 mg/kg)?
**A.** 91.6 ± 2.4 % initial

**Q.** What about the Brain weight ([6]; 5 mg/kg) of the same compound?
**A.** 0.367 ± 0.007 g

**Q.** What about the Heart weight ([6]; 5 mg/kg) of the same compound?
**A.** 0.078 ± 0.002 g

**Q.** What about the Kidney weight ([6]; 5 mg/kg) of the same compound?
**A.** 0.187 ± 0.006 g

**Q.** What about the Liver weight ([6]; 5 mg/kg) of the same compound?
**A.** 0.77 ± 0.02 g

**Q.** And the Lung weight ([6]; 5 mg/kg)?
**A.** 0.117 ± 0.003 g

**Q.** What about the Spleen weight ([6]; 5 mg/kg) of the same compound?
**A.** 0.075 ± 0.004 g

**Q.** What about the “Body weight (% initial)” value ([6]; 7.5 mg/kg) of the same compound?
**A.** 91.6 ± 2.2 % initial

**Q.** And the Brain weight ([6]; 7.5 mg/kg)?
**A.** 0.356 ± 0.007 g

**Q.** And the Heart weight ([6]; 7.5 mg/kg)?
**A.** 0.092 ± 0.005 g

**Q.** What about the Kidney weight ([6]; 7.5 mg/kg) of the same compound?
**A.** 0.193 ± 0.008 g

**Q.** What about the Liver weight ([6]; 7.5 mg/kg) of the same compound?
**A.** 0.83 ± 0.03 g

**Q.** And the Lung weight ([6]; 7.5 mg/kg)?
**A.** 0.119 ± 0.004 g

**Q.** What about the Spleen weight ([6]; 7.5 mg/kg) of the same compound?
**A.** 0.061 ± 0.009 g
